# Reference: article PMC7255104, “Receptor Characterization and Functional Activity of Pyrokinins on the Hindgut in the Adult Mosquito, Aedes aegypti” (Frontiers in Physiology, 2020)
# Where a SMILES comes first, the peptide text is derived from it. [ ]: non-standard residue; d: D form. pGlu = O=C1CC[C@@H](C(=O)O)N1
# Experiments:
# [1] = tested on: isolated recta of A. aegypti; assay: Rectal contraction assay (impedance converter); set-up: species or system Aedes aegypti; conditions: 1 μM, 2-min interval, mean of 6-18 preparations
# Protocol: Hindgut contraction assays were conducted on isolated […] of female A. aegypti. […] The isolated tissue was secured with minutien pins within a Sylgard-lined petri-dish. Given its high sequence similarity to endogenous A. aegypti PK2 peptides (Supplementary Table S1), we used the R. prolixus PK2b peptide ([Paluzzi and O'Donnell, 2012]), henceforth referred to as RhoprPK2b, for motility bioassays. Commercially synthesized peptides (Genscript, Piscataway, NJ, United States), […] ([…]) and RhoprPK2[…]), were used to examine myomodulatory activity. […] To assess whether PK1 peptides plays a role in regulating rectal motility, contractions were monitored in saline to obtain baseline contraction rates and subsequently following […] or 5-HT treatments, using probes connected to an impedance converter (UFI model 2991, Morro Bay, CA, United States) connected to a Powerlab 4/30 and laptop computer running LabChart […].0 software (AD Instruments, Colorado Springs, CO, United States). […] Probes were positioned on either side of the rectum by observation with a dissecting microscope (Olympus SZ61), and contractile responses were recorded on LabChart […].0 software (AD Instruments, Colorado Springs, CO, United States). Contractions were monitored for two minutes prior to, and after the addition of either […] or 5-HT. […]
# [2] = tested on: isolated ilea of female A. aegypti; assay: Ileal motility assay (video recordings); set-up: species or system Aedes aegypti; conditions: Figure 6, 1 μM, 5-HT added together with 1 μM RhoprPK2b
# Protocol: Hindgut contraction assays were conducted on isolated […] of female A. aegypti. […] The isolated tissue was secured with minutien pins within a Sylgard-lined petri-dish. Given its high sequence similarity to endogenous A. aegypti PK2 peptides (Supplementary Table S1), we used the R. prolixus PK2b peptide ([Paluzzi and O'Donnell, 2012]), henceforth referred to as RhoprPK2b, for motility bioassays. Commercially synthesized peptides (Genscript, Piscataway, NJ, United States), […] ([…]) and RhoprPK2[…]), were used to examine myomodulatory activity. Serotonin (5-hydroxytryptamine, 5-HT; Sigma-Aldrich, Oakville, ON, Canada), previously shown to stimulate A. aegypti hindgut contractions ([Messer and Brown, 1995]), was used as a stimulatory control. Given the inhibitory properties of myoinhibitory peptides (having the consensus W(X6)W-NH2 carboxyl terminus) on insect hindgut motility ([Lange et al., 2012]), RhoprMIP-7 ([…]; Genscript, Piscataway, NJ, United States; [Paluzzi et al., 2015]) was used as an inhibitory control. […] Unlike the rectum, the mosquito ileum produces weaker contractions that we were unable to measure using an impedance converter as described above. […] The dissected gut was pinned in the midgut and rectum to allow the ileum to freely contract in saline and following treatments. Contractions were recorded for 2 min in saline that was used for baseline activity measurements, followed by three subsequent 2-min recordings, including: […] The RhoprPK2b was added along with the stimulatory or inhibitory compound (5-HT or RhoprMIP-7, respectively), to maintain its 1 μM concentration in the bath. […] To account for any potential changes in tissue contractile activity upon adding solutions to the bath, each of these variables were measured relative to baseline saline recordings of the same preparation as a ratio of change, where a value above or below one indicates an increase or a decrease, (respectively), in the rate, duration or length between each contraction in response to the treatment.
# A. aegypti PK2-R = target: T1, A. aegypti PK2-R (Aedes aegypti, UniProt V9P4J1); assay: Heterologous functional receptor assay (aequorin bioluminescence), PK2-R; format: cell-based; conditions: CHO-K1 cells expressing PK2-R
# T1 sequence (V9P4J1 1-638): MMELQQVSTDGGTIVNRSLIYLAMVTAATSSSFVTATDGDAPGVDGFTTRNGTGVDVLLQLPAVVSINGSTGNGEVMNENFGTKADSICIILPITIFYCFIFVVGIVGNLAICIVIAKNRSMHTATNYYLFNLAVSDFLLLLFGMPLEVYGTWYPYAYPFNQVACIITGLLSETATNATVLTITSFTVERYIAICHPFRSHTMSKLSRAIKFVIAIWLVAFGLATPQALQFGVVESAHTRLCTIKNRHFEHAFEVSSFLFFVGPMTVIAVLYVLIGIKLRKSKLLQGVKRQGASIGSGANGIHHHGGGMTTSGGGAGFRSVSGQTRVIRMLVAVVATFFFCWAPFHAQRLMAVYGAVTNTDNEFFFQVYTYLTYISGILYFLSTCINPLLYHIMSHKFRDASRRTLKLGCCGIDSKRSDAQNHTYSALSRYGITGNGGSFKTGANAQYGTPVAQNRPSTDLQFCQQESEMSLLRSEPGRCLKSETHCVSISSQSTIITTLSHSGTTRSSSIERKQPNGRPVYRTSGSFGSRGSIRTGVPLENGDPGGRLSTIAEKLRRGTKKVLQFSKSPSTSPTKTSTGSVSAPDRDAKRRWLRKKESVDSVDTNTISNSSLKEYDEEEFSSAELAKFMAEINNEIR
# Source text: (§1) The complete open reading frame was amplified based on the partial ([Nene et al., 2007]) and complete sequences ([Choi et al., 2013]) reported earlier for the A. aegypti PK1-R (Genbank accession: EAT35008.1) and PK2-R (Genbank accession: KC155994.1). Forward 5′-[…]-3′ (PK1-R) or 5′-[…]-3′ (PK2-R) and reverse 5′-[…]-3′ (PK1-R) or 5′-[…]-3′ (PK2-R) primers were designed over the start and stop codons (underlined), respectively, and used to amplify the complete coding sequence using Q5 High-Fidelity DNA polymerase following manufacturer recommendations (New England Biolabs, Whitby, ON). […] The resulting products were cloned into pGEM-T Easy sequencing vector, and miniprep samples were sequenced to verify base accuracy. The receptor constructs were excised using standard restriction enzyme digestion and subcloned into the mammalian expression vector, pcDNA 3.1^+ (Life Technologies, Burlington, ON, Canada). Transfection quality plasmid DNA was purified from an overnight bacterial culture using the PureLink MidiPrep Kit (Invitrogen, Burlington, ON, Canada) following manufacturer guidelines.
# (§2) Chinese hamster ovary cells (CHO-K1) described previously ([Paluzzi et al., 2012]; [Gondalia et al., 2016]; [Wahedi and Paluzzi, 2018]) were grown in Dulbecco’s modified eagles medium: nutrient F12 (DMEM:F12) media containing 10% heat-inactivated fetal bovine serum (FBS; Wisent, St. Bruno, QC, Canada), 200 μg/mL geneticin, and antimycotic-antibiotic mixture as described previously ([Wahedi and Paluzzi, 2018]). […] Various concentrations of synthesized PK peptides and other peptides (purity > 90%; Genscript, Piscataway, NJ, United States) were prepared in BSA media and loaded in quadruplicate into white 96-well luminescence plates (Greiner Bio-One, Germany).
# Luminescence responses to A. aegypti CAPA-1 (GPTVGLFAFPRV-NH2), CAPA-2 (pQGLVPFPRV-NH2) and CAPA-PK1 (AGNSGANSGMWFGPRL-NH2) peptides, along with the R. prolixus PK2 orthologs, PK2a (NTVNFSPRL-NH2), and PK2b (SPPFAPRL-NH2) were examined. A list of peptides used in this study and sequence comparison to native A. aegypti pyrokinin peptides is found in Supplementary Table S1. Cells prepared for the functional assay were loaded into each well of the plate using an automated injector unit and luminescent response was measured with a Synergy 2 Multi-Mode Microplate Reader (BioTek, Winooski, VT, United States). Negative controls were carried out using BSA media alone whereas 50 μM ATP, which activates endogenously expressed purinoceptors ([Iredale and Hill, 1993]; [Michel et al., 1998]), was used as a positive control. Luminescence responses were normalized to ATP responses and analyzed in GraphPad Prism 7.02 (GraphPad Software, San Diego, CA, United States). EC50 values were determined using dose-response curves from multiple biological replicates.
# A. aegypti PK1-R = assay: Heterologous functional receptor assay (aequorin bioluminescence), PK1-R; format: cell-based, Aedes aegypti; conditions: CHO-K1 cells expressing PK1-R; luminescent response
# Source text: as §1, with “The receptor constructs were excised using standard restriction enzyme digestion and subcloned into the mammalian expression vector, pcDNA 3.1^+ (Life Technologies, Burlington, ON, Canada). Transfection quality plasmid DNA was purified from an overnight bacterial culture using the PureLink MidiPrep Kit (Invitrogen, Burlington, ON, Canada) following manufacturer guidelines.” left out
# as §2, with “Germany). […]” for “Germany).”
# [3] = tested on: anti-RhoprCAPA-2 primary antiserum (antigen EGGFISFPRV-NH2); assay: Competitive ELISA for antibody cross-reactivity; format: binding, rabbit; conditions: antiserum 1:1000; absorbance at 450 nm; mean ± SEM, n = 4; read-out: IC50, competitive ELISA against 1 nM biotinylated-DromeCAPA
# Protocol: In brief, 96-well plates were coated with anti-RhoprCAPA-2 primary antiserum diluted to 1:1000 in carbonate buffer (15 mM Na2CO3-H2O and 35 mM NaHCO3 in water; pH 9.4) and incubated overnight at 4°C. Plate contents were discarded, blotted, and rinsed three times with wash buffer (350 mM NaCl, 2.7 mM KCl, 1.5 mM KH2PO4, 5.15 mM Na2HPO4-H2O, and 0.05% Tween-20 (v/v) in water). Wells were then incubated for 1.5 h on a rocker with block buffer [0.5% skim milk powder (w/v) and 0.5% BSA (w/v) in PBS]. The block solution was discarded, and standard solutions were added (100 μL/well). Standards consisted of AedaeCAPA-1 and AedaeCAPA-2 diluted in block buffer to achieve concentrations ranging from 250 pM to 250 nM, or AedaeCAPA-PK1 and RhoprPK2b from 4.8 nM to 75 uM. After a 1.5 h incubation on a rocker, 1 nM biotinylated-DromeCAPA diluted in block buffer ([MacMillan et al., 2018]) was added (100 μL/well) to compete with the unlabeled peptide standards for antibody binding. Following overnight incubation at 4°C, the wells were washed four times with wash buffer, and incubated at 4°C for 1.5 h with Avidin-HRP (1:2000; Bio-Rad, Mississauga, ON, Canada). […] Reactions were stopped with 100 μL/well 2N HCl and absorbance at 450 nm was measured using a Synergy 2 Multi-Mode Microplate Reader (BioTek, Winooski, VT, United States).
Compound,fold change in contraction rate of female recta relative to baseline in saline ([1]; female recta),fold change in contraction rate of male recta relative to baseline in saline ([1]; male recta),"ileal contraction frequency relative to baseline ([2]; 2-min recordings, mean of 15 preparations)",duration of each ileal contraction relative to baseline ([2]; 15 preparations),length of time between ileal contractions relative to baseline ([2]; 15 preparations),activation of PK2-R (in words) (A. aegypti PK2-R; luminescent response),activation of PK2-R relative to the highly potent pyrokinins (A. aegypti PK2-R; very high concentrations),activation of PK1-R (in words) (A. aegypti PK1-R),IC50 [3]
"NCCc1c[nH]c2ccc(O)cc12 [5-HT, 5-hydroxytryptamine]",1.97 fold,2.48 fold,2.88 fold,effectively reduced,effectively reduced,–,–,–,–
CC(C)C[C@H](NC(=O)CNC(=O)[C@@H]1CCC(=O)N1)C(=O)N[C@H](C(=O)N1CCC[C@H]1C(=O)N[C@@H](Cc1ccccc1)C(=O)N1CCC[C@H]1C(=O)N[C@@H](CCCNC(=N)N)C(=O)N[C@H](C(N)=O)C(C)C)C(C)C [AedaeCAPA-2] ([pGlu]GLVPFPRV-NH2),–,–,–,–,–,only active on PK2-R at very high concentrations,≤ 25%,effective in activating PK1-R at high concentrations,16.9 nM
